Experimental data taken from patent US10934255B2, “Nrf and HIF activators/HDAC inhibitors and therapeutic methods using the same” (THE BOARD OF TRUSTEES OF THE UNIVERSITY OF ILLINOIS, priority 2017, dated 2021).

Key:
Format in all cases: biochemical
[1] = target: HDAC9 (Homo sapiens, UniProt Q9UKV0); experiment: HDAC9 isoform selectivity assay; conditions: Table 2 isoform selectivity; read-out: HDAC Inhibition (IC50 uM) isoform 9
Protocol: (§1) The HDAC1, 2, 4, 5, 6, 7, 8, 9, 10, and 11 assays used isolated recombinant human protein; HDAC3/NcoR2 complex was used for the HDAC3 assay. Substrate for HDAC1, 2, 3, 6, 10, and 11 assays is a fluorogenic peptide from p53 residues 379-382 (RHKKAc); substrate for HDAC8 is fluorogenic diacyl peptide based on residues 379-382 of p53 (RHKAcKAc). Acetyl-Lys(trifluoroacetyl)-AMC substrate was used for HDAC4, 5, 7, and 9 assays. Compounds were dissolved in DMSO and tested in 10-dose IC50 mode with 3-fold serial dilution starting at 30 μM. Control Compound Trichostatin A (TSA) was tested in a 10-dose IC50 with 3-fold serial dilution starting at 5 μM. IC50 values were extracted by curve-fitting the dose/response slopes. Assays were performed in duplicate and IC50 values are an average of data from both experiments.

[2] = target: HDAC5 (Homo sapiens, UniProt Q9UQL6); experiment: HDAC5 isoform selectivity assay; conditions: Table 2 isoform selectivity; read-out: HDAC Inhibition (IC50 uM) isoform 5
Protocol: as §1

[3] = target: T1, HDAC7 (Homo sapiens, UniProt Q8WUI4); experiment: HDAC7 isoform selectivity assay; conditions: Table 2 isoform selectivity; read-out: HDAC Inhibition (IC50 uM) isoform 7
T1 sequence (Q8WUI4 1-952): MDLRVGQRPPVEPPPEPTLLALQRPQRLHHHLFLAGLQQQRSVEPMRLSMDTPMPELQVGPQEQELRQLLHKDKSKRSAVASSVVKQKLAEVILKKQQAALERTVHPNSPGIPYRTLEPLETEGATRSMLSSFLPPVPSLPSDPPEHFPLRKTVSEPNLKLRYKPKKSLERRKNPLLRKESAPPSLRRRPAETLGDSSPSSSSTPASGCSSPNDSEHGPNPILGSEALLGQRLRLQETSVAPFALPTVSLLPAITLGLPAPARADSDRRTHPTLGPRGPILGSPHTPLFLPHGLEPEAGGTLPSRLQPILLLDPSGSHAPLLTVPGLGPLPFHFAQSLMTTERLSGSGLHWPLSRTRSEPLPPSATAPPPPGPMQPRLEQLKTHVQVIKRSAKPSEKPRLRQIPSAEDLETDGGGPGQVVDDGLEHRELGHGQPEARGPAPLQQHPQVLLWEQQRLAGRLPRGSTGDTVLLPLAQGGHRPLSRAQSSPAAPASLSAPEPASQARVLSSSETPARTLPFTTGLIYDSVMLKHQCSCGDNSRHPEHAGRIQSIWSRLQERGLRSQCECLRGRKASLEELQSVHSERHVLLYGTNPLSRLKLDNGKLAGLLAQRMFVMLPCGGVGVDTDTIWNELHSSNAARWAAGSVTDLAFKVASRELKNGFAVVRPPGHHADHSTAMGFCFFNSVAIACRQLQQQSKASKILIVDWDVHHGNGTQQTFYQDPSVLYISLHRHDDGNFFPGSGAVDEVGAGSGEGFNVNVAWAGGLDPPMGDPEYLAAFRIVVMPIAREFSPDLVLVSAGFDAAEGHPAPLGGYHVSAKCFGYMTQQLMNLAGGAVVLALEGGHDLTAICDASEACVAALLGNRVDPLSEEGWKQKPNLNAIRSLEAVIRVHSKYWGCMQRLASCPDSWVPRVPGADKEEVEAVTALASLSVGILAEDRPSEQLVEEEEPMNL
Protocol: as §1

[4] = target: T2, HDAC10 (Homo sapiens, UniProt Q969S8); experiment: HDAC10 isoform selectivity assay; conditions: Table 2 isoform selectivity; read-out: HDAC Inhibition (IC50 uM) isoform 10
T2 sequence (Q969S8 1-669): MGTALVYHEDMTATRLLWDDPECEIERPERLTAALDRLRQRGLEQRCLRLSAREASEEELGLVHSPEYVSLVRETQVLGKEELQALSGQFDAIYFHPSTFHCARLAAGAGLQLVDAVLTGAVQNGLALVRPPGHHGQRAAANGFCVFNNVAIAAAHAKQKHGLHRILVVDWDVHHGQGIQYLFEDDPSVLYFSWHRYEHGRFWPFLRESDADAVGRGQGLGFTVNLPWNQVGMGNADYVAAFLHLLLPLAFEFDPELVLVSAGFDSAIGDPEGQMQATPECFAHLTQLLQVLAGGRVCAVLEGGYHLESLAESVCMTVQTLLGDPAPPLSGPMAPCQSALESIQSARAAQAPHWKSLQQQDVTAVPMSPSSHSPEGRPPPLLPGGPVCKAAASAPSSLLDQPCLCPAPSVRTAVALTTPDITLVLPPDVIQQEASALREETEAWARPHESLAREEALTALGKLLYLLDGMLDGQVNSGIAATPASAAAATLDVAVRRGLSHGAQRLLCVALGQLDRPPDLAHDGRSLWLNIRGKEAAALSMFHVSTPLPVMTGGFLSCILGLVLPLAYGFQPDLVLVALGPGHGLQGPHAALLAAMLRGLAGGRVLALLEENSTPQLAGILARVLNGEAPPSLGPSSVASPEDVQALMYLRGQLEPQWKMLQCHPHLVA
Protocol: as §1

[5] = target: T3, HDAC8 (Homo sapiens, UniProt Q9BY41); experiment: HDAC8 isoform selectivity assay; conditions: Table 2 isoform selectivity; read-out: HDAC Inhibition (IC50 uM) isoform 8
T3 sequence (Q9BY41 1-377): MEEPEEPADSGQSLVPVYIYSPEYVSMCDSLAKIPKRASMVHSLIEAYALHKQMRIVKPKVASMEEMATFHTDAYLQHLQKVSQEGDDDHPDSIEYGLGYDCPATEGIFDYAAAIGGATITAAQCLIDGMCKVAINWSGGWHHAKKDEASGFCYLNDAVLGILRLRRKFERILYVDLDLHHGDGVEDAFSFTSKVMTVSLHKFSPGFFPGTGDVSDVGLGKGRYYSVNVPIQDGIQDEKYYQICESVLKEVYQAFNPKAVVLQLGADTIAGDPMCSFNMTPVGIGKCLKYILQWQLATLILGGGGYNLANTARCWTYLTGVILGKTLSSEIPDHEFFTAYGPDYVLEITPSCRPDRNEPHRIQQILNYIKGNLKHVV
Protocol: as §1

[6] = target: HDAC2 (Homo sapiens, UniProt Q92769); experiment: HDAC2 isoform selectivity assay; conditions: Table 2 isoform selectivity; read-out: HDAC Inhibition (IC50 uM) isoform 2
Protocol: as §1

HDAC5, sequence (Q9UQL6 whole entry, canonical isoform): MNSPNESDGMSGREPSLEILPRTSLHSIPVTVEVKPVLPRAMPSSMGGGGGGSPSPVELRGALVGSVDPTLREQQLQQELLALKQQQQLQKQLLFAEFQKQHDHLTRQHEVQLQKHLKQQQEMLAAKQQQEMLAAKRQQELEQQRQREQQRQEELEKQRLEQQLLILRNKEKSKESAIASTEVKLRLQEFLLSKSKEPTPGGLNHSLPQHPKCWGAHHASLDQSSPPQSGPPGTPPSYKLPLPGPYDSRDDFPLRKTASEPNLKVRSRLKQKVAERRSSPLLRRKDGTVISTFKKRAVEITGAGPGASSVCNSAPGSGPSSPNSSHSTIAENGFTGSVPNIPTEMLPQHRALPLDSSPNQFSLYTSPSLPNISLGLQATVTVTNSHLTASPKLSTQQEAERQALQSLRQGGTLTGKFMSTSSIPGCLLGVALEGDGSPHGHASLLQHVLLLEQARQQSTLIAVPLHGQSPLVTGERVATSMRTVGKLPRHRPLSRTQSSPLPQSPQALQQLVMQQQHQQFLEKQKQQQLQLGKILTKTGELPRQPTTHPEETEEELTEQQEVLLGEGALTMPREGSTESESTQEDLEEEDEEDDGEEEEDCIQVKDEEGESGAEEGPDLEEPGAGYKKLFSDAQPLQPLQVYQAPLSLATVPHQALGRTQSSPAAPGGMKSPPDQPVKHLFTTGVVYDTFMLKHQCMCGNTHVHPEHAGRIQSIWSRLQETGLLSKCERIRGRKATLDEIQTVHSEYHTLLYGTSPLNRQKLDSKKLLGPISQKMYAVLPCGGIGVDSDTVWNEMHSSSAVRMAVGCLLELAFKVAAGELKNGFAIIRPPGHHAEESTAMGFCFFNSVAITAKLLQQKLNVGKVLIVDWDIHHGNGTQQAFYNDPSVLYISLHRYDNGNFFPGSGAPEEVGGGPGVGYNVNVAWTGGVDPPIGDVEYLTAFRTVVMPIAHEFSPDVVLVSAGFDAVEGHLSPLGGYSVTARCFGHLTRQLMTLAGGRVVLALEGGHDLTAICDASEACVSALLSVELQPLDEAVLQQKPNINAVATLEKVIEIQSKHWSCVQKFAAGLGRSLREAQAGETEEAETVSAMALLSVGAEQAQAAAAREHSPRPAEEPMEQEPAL
HDAC2, sequence (Q92769 whole entry, canonical isoform): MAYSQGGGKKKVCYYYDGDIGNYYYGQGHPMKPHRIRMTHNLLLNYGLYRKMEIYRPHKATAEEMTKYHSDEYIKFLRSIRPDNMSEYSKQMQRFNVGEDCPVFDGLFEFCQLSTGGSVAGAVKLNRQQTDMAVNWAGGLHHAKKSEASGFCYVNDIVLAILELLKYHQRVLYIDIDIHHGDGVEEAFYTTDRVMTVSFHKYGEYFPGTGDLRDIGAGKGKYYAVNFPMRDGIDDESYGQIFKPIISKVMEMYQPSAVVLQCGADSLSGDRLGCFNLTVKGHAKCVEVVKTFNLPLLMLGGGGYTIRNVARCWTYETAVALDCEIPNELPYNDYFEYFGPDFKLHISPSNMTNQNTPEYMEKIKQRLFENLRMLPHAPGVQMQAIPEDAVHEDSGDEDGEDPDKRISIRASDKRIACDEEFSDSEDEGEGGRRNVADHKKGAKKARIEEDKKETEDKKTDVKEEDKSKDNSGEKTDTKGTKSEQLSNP
HDAC9, sequence (Q9UKV0 whole entry, the tested form may be a part, canonical isoform): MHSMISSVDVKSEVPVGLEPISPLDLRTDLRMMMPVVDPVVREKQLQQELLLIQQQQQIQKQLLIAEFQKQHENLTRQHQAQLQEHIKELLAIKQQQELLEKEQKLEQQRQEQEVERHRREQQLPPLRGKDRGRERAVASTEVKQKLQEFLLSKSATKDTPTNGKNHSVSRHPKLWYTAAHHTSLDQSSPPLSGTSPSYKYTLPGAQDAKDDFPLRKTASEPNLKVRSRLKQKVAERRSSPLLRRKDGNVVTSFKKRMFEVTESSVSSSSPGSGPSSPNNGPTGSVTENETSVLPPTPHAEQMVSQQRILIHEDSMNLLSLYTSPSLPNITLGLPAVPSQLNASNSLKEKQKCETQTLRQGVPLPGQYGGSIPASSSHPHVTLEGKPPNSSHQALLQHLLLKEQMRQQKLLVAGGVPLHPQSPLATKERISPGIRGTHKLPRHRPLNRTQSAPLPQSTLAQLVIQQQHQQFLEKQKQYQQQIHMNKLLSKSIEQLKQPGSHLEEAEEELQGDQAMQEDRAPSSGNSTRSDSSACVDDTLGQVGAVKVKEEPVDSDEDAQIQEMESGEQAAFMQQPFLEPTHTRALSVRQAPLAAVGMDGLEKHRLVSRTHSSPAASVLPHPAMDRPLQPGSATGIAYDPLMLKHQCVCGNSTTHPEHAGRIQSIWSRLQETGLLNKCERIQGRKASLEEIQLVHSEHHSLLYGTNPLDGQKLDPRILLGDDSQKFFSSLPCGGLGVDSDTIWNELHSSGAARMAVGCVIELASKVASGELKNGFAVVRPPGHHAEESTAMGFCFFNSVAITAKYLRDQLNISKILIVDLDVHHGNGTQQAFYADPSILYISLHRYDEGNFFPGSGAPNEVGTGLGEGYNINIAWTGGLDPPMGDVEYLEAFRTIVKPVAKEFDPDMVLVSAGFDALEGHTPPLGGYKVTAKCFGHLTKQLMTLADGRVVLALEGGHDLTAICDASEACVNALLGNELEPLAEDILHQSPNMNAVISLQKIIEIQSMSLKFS

SMILES	IC50 [1]	IC50 [2]	IC50 [3]	IC50 [4]	IC50 [5]	IC50 [6]
O=C(NO)c1ccc(CN2CCc3ccc(Cl)cc32)cc1 [II-ING-6, 4-((6-Chloroindolin-1-yl)methyl)-N-hydroxybenzamide]	2.06 µM	2.7 µM	0.98 µM	6.39 µM	0.53 µM	6.24 µM
Cn1c(NCc2ccc(C(=O)NO)cc2)nc2ccccc21 [II-ING-13, N-Hydroxy-4-(((1-methyl-1H-benzo[d]imidazol-2-yl)amino)methyl)benzamide]	1.1 µM	1.96 µM	0.55 µM	5.95 µM	0.17 µM	5.2 µM
O=C(NO)c1ccc(CN2CCc3ccc(F)cc32)cc1 [II-ING-41, 4-((6-Fluoroindolin-1-yl)methyl)-N-hydroxybenzamide]	1 µM	1.39 µM	0.46 µM	6.03 µM	0.19 µM	7.15 µM
